Experimental data as given in US20240277890A1, “ANTIMICROBIAL ARTICLES COMPRISING POLYURETHANE” (Amicoat AS, priority 2021, published 2024).
Converted amounts (≈) assume the structure as drawn.

Test system: Propionibacterium acnes- antibiotic-resistant clinical isolate
Conditions: P. acnes antibiotic-resistant

CCCCCCNC(=O)[C@H](CCCNC(=N)N)NC(=O)[C@H](Cc1c(C(C)(C)C)[nH]c2c(C(C)(C)C)cc(C(C)(C)C)cc12)NC(=O)[C@@H](N)CCCNC(=N)N [Compound 8]
MIC: 2 µg/mL (≈ 2.6 µM)
